Assay results published in patent US9642366B2, “Active substance combinations that have nematicidal, insecticidal, and fungicidal properties and are based on trifluorobutenyl compounds” (priority 2003, dated 2017).
“And” between values parts separate entries of the source, which are not always exact repeats. Identical values can stand only once.

Key:
[1] = test system: Phytophthora cactorum; experiment: Mycelium growth test with Phytophthora cactorum; assay type: cell-based; conditions: single active compound
[2] = test system: Phythium ultimum; experiment: Mycelium growth test with Phythium ultimum; assay type: cell-based; conditions: single active compound
[3] = test system: Rhizoctonia solani; experiment: Mycelium growth test with Rhizoctonia solani; assay type: cell-based; conditions: single active compound
[4] = test system: Plutella xylostella, sensitive strain; experiment: Plutella test, sensitive strain (insecticidal action, dipped cabbage leaves); assay type: in vivo; conditions: 100 ppm, single active compound
Source text: (§1) The expected action for a given combination of two active compounds can be calculated as follows (cf. Colby, S. R., “Calculating Synergistic and Antagonistic Responses of Herbicide Combinations”, Weeds 15 (1967), 20-22):
(§2) If • X is the efficacy or kill rate, expressed as a percentage of the untreated control, when employing active compound A in a concentration of m ppm, • Y is the efficacy or kill rate, expressed as a percentage of the untreated control, when employing active compound B in a concentration of […] and • E is the efficacy or kill rate, expressed as a percentage of the untreated control, when employing active compounds A and B in a concentration of m and n ppm,
(§3) If the actual fungicidal or nematicidal, insecticidal and/or acaricidal action exceeds the calculated value, the action of the combination is superadditive, i.e. a synergistic effect is present. In this case, the actually observed efficacy or kill rate must exceed the value calculated using the above formula for the expected efficacy (E).
Solvent: 7 parts by weight of dimethylformamide […]
Cabbage leaves (Brassica oleracea) are treated by being dipped into the preparation of active compound of the desired concentration and are populated with caterpillars of the diamondback moth (Plutella xylostella, sensitive strain) while the leaves are still moist. After the desired period of time, the kill in % is determined. […]

[5] = test system: Meloidogyne incognita; experiment: Meloidogyne test (nematicidal action, gall formation on lettuce roots); assay type: in vivo; conditions: single active compound
Source text: as §1, §2, §3
Solvent: 7 parts by weight of dimethylformamide
Emulsifier: 2 parts by weight of alkylaryl polyglycol ether
To produce a suitable preparation of active compound, 1 part by weight of active compound is mixed with the stated amounts of solvent and emulsifier, and the concentrate is diluted with water to the desired concentration.
Vessels are filled with sand, solution of active compound, Meloidogyne incognita egg/larvae suspension and lettuce seeds. The lettuce seeds germinate and plants develop. On the roots, galls are formed.
After the desired period of time, the nematicidal action is determined in % by the formation of galls. 100% means that no galls have been found; 0% means that the number of galls on the treated plants corresponds to that of the untreated control. The determined kill rates are inserted into Colby's formula.

[6] = test system: Fusarium nivale; experiment: Mycelium growth test with Fusarium nivale; assay type: cell-based; conditions: 1 ppm in the nutrient medium, single active compound

## tolylfluanid
[1]; 10 ppm in the nutrient medium
  Efficacy [%]: 65%
[2]; 10 ppm in the nutrient medium
  Efficacy [%]: 82%

## CC(C)(C)C(O)(CCc1ccc(Cl)cc1)Cn1cncn1 (centres unmarked) [tebuconazole]
[1]; 100 ppm in the nutrient medium
  Efficacy [%]: 12%
[2]; 100 ppm in the nutrient medium
  Efficacy [%]: 72%

## CO/N=C(/C1=NOCCO1)c1ccccc1Oc1ncnc(Oc2ccccc2Cl)c1F [fluoxastrobin]
[1]; 5 ppm in the nutrient medium
  Efficacy [%]: 28%
[3]; 1 ppm in the nutrient medium
  Efficacy [%]: 39%
[2]; 10 ppm in the nutrient medium
  Efficacy [%]: 74%

## CCCN(CCOc1c(Cl)cc(Cl)cc1Cl)C(=O)n1ccnc1 [prochloraz]
[1]; 50 ppm in the nutrient medium
  Efficacy [%]: 30%

## CO/N=C(\C(=O)OC)c1ccccc1CO/N=C(\C)c1cccc(C(F)(F)F)c1 [trifloxystrobin]
[1]; 10 ppm in the nutrient medium
  Efficacy [%]: 29%
[3]; 1 ppm in the nutrient medium
  Efficacy [%]: 39%
[4]
  Kill rate [%] after 3 days: 15%
[5]; 20 ppm
  Kill rate [%] after 14 days: 0%

## CC(C)NC(=O)N1CC(=O)N(c2cc(Cl)cc(Cl)c2)C1=O [iprodione]
[2]; 200 ppm in the nutrient medium
  Efficacy [%]: 9%

## O=S(=O)(CCC(F)=C(F)F)c1ncc(Cl)s1 [(IC)]
[6]
  Efficacy [%]: 15%
[1]; 50 ppm in the nutrient medium
  Efficacy [%]: 7%
[1]; 100 ppm in the nutrient medium
  Efficacy [%]: 18% and 23%
[3]; 1 ppm in the nutrient medium
  Efficacy [%]: 0%
[3]; 10 ppm in the nutrient medium
  Efficacy [%]: 49%
[4]
  Kill rate [%] after 3 days: 0%
[5]; 0.8 ppm
  Kill rate [%] after 14 days: 50%

## O=C(Nc1ccccc1)N(Cc1ccc(Cl)cc1)C1CCCC1 [pencycuron]
[1]; 200 ppm in the nutrient medium
  Efficacy [%]: 0%

## OC(Cc1ccccc1Cl)(Cn1nc[nH]c1=S)C1(Cl)CC1 (centres unmarked) [prothioconazole]
[5]; 20 ppm
  Kill rate [%] after 14 days: 50%

## N#Cc1c[nH]cc1-c1cccc2c1OC(F)(F)O2 [fludioxonil]
[5]; 20 ppm
  Kill rate [%] after 14 days: 0%
